Reference: ChEMBL document CHEMBL3885861, “Open TG-GATES”

Species: Rattus norvegicus
Assay: Open TG-GATES - Regimen: Daily Repeat
Type: toxicity, organism-based, Sprague-Dawley
Set-up: regimen Daily Repeat, gender Male, age 6 weeks
Details: in vivo, sc, 0.2 mg/kg, […], route subcutaneous injection, dose 200 ug/Kg, dose level High; for KIDNEY_L / KIDNEY_R / KIDNEY_TOTAL: tissue Kidney; for LIVER: tissue Liver; for A/G / ALP / ALT / AST / BUN / CRE / Ca / Cl / DBIL / GLC / IP / K / LDH / Na / PL / RALB / TBIL / TC / TG / TP / gamma-GTP: tissue Plasma

## CC(=O)O.N=C(N)NCCC[C@@H](NC(=O)[C@@H]1CCCN1C(=O)[C@@H]1CSSCCC(=O)N[C@@H](Cc2ccc(O)cc2)C(=O)N[C@@H](Cc2ccccc2)C(=O)N[C@@H](CCC(N)=O)C(=O)N[C@@H](CC(N)=O)C(=O)N1)C(=O)NCC(N)=O [DESMOPRESSIN ACETATE]
Tissue Blood, time 28 day
  Lym: 80.4%
  MCH: 18.8 pg
  MCHC: 32.8%
  MCV: 57.4 fL
  Mono: 6.4%
  Neu: 11.8%
  PT: 12.2 s
  Plat: 112.2 x10_4/uL
  RBC: 795.2 x10_4/ul
  Ret: 3.1%
  WBC: 95 x10_2/uL
Time 7 day
  KIDNEY_L: 1.3 g
  KIDNEY_R: 1.3 g
  KIDNEY_TOTAL: 2.6 g
  LIVER: 11.3 g
  A/G: 2
  ALP: 1056 IU/L
  ALT: 30.2 IU/L
  AST: 67.6 IU/L
  BUN: 21.2 mg/dL
  CRE: 0.4 mg/dL
  Ca: 13.2 mg/dL
  Cl: 98.8 meq/L
  DBIL: 0.014 mg/dL
  GLC: 200.8 mg/dL
  IP: 7.4 mg/dL
  K: 4.8 meq/L
  LDH: 169.6 IU/L
  Na: 129.8 meq/L
  PL: 130 mg/dL
  RALB: 3.6 g/dL
  TBIL: 0.042 mg/dL
  TC: 71.4 mg/dL
  TG: 90.2 mg/dL
  TP: 5.5 g/dL
  gamma-GTP: 1 IU/L
Time 14 day
  KIDNEY_L: 1.5 g
  KIDNEY_R: 1.5 g
  KIDNEY_TOTAL: 3 g
  LIVER: 13.6 g
  A/G: 1.9
  ALP: 1196.4 IU/L
  ALT: 31.8 IU/L
  AST: 69.2 IU/L
  BUN: 20.8 mg/dL
  CRE: 0.4 mg/dL
  Ca: 10.7 mg/dL
  Cl: 105.6 meq/L
  DBIL: 0.014 mg/dL
  GLC: 207 mg/dL
  IP: 7.5 mg/dL
  K: 5 meq/L
  LDH: 125.6 IU/L
  Na: 138.6 meq/L
  PL: 150.8 mg/dL
  RALB: 3.7 g/dL
  TBIL: 0.038 mg/dL
  TC: 75.6 mg/dL
  TG: 119.8 mg/dL
  TP: 5.7 g/dL
  gamma-GTP: 1 IU/L
Time 28 day
  KIDNEY_L: 1.8 g
  KIDNEY_R: 1.8 g
  KIDNEY_TOTAL: 3.6 g
  LIVER: 14.7 g
  A/G: 1.6
  ALP: 872.6 IU/L
  ALT: 28 IU/L
  AST: 62.8 IU/L
  BUN: 22 mg/dL
  CRE: 0.4 mg/dL
  Ca: 9.2 mg/dL
  Cl: 105.6 meq/L
  DBIL: 0.01 mg/dL
  GLC: 182.8 mg/dL
  IP: 6.5 mg/dL
  K: 4.8 meq/L
  LDH: 160 IU/L
  Na: 138.4 meq/L
  PL: 153.2 mg/dL
  RALB: 3.8 g/dL
  TBIL: 0.046 mg/dL
  TC: 88.4 mg/dL
  TG: 117.6 mg/dL
  TP: 6.1 g/dL
  gamma-GTP: 0.6 IU/L
